# Positions count from the first letter of the chain named.
# What was measured:
# LuxN^H210T = molecular target: T1, LuxN^H210T (Vibrio campbellii, UniProt A7MRY4, H210T); assay: Bioluminescence of V. harveyi XK006 carrying luxN H210T; type: cell-based, Vibrio harveyi; settings: 1 μM AHL
# T1 sequence (A7MRY4 1-849 H210T): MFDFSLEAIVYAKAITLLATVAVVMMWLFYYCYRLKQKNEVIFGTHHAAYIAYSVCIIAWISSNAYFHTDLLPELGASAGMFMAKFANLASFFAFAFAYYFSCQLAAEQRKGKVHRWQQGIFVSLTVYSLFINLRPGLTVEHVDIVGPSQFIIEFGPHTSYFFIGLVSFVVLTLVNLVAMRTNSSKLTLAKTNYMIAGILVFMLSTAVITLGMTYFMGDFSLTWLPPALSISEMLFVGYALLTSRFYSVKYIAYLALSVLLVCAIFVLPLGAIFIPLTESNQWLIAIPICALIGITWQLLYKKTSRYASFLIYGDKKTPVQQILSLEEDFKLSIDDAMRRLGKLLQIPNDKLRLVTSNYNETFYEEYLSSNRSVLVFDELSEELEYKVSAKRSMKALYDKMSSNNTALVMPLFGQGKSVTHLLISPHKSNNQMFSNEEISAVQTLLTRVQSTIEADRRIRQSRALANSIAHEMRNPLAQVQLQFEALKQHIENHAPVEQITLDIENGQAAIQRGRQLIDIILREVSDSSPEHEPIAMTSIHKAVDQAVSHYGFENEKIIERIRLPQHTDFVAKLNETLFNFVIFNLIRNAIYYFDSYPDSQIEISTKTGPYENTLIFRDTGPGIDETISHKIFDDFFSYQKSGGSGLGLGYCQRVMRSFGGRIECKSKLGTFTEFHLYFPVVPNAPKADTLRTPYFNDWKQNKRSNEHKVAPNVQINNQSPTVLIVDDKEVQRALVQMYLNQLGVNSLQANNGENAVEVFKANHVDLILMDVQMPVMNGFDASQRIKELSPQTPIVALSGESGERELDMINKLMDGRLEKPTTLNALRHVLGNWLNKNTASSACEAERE
# LuxN^G147D/Y194H = molecular target: T2, LuxN^G147D/Y194H (Vibrio campbellii, UniProt A7MRY4, G147D/Y194H); assay: Bioluminescence of V. harveyi XK006 carrying luxN G147D/Y194H; type: cell-based, Vibrio harveyi
# T2 sequence (A7MRY4 1-849 G147D/Y194H): T1 sequence (A7MRY4 1-849 H210T) with G147D, Y194H, T210H
# luxN^T159I/Y193K = molecular target: T3, luxN^T159I/Y193K (Vibrio campbellii, UniProt A7MRY4, N193K/T159I); assay: Bioluminescence of V. harveyi XK006 carrying luxN T159I/Y193K; type: cell-based, Vibrio harveyi
# T3 sequence (A7MRY4 1-849 T159I/N193K): T1 sequence (A7MRY4 1-849 H210T) with T159I, N193K, T210H
# LuxN = LuxN (Vibrio campbellii, UniProt A7MRY4); settings: 1 μM AHL; V. harveyi TL25; versus DMSO
smiles,measurement,setting,value
"C[C@@H](O)CC(=O)N[C@H]1CCOC1=O [3OH-C4 HSL, N-((R)-3-hydroxybutanoyl)-L-homoserine lactone]",response (light production),LuxN^H210T,modest response
same,response (dose-dependent light production),LuxN^G147D/Y194H,most potent agonist
same,induction of light production,LuxN^G147D/Y194H; 20 nM AI-1,30 fold
same,response (dose-dependent light production),luxN^T159I/Y193K,most potent agonist
same,increase in light production,LuxN,over 1000 fold
